The conditions of experiment [1]: SPR, mean ± SEM, cited from earlier work. From the text: (§1) Table 3 Binding of OxP-11D and D-4F to oxidized and nonoxidized (phospho)lipids and sterols. | column: apoA-I; KD ± SEM (M) / D-4F
The target of another experiment is T1, Bovine albumin (Bos taurus, UniProt P02769).
T1 construct: purchased Sigma-Aldrich
Particulars: SPR; mean ± SEM; read-out: KD ± SEM, bovine albumin (control); cited from earlier work.
Excerpt: as §1
On the technique in general: Surface plasmon resonance follows binding to a sensor surface in real time, without labels.

In experiment [2] the test system is LDL-induced monocyte chemotaxis in cultured human aortic endothelial cells (HAEC). Put plainly: Monocyte chemotaxis assay (LDL-treated HAEC cultures). It is filed as cell-based. As to conditions: for Monocyte chemotactic activity, Inflammatory Index (II): peptide 1 µg/ml, HAEC treated with LDL 250 µg/ml 8 h, standardized to LDL, II<1 anti-inflammatory, Figure 1; for Monocyte chemotactic activity, dose response: Figure 2. As to the method:
Normal human monocytes were isolated as previously described. Human aortic endothelial cells (HAEC) were isolated and maintained as previously reported. Acquisition and use of these cells was in accordance with protocols approved by the UCLA Human Research Subject Protection Committee.
(§2) As previously described, [64], HAEC cells were treated with native LDL (250 µg/ml) in the absence or presence of HDL or tested peptides for 8 h. After these cultures were washed, the medium was replaced by fresh Medium 199 and the cultures were incubated for an additional 8 h. This culture medium was collected and assayed for monocyte chemotactic activity using chambers purchased from Neuroprobe (Cabin John, MD). After monocytes were added to the upper compartment, the chamber was incubated for 60 min at 37°C and subsequently disassembled. The membrane was rinsed, air dried, fixed with 1% glutaraldehyde, stained with 0.1% crystal violet dye, and 12 standardized high power fields were examined microscopically. The number of migrated monocytes was expressed as the mean ±SD of monocytes counted. Values obtained in the absence of HDL were normalized to a value of 1.0. Normalized values >1.0 after HDL addition were considered to be pro-inflammatory, and values <1.0 as being anti-inflammatory.

For a further experiment, the system named is apoE deficient mice. Put plainly: In vivo activity in apoE deficient mice: HDL inflammatory index. As to the method:
as §2
ApoE null mice on a C57BL/6J background, originally from Jackson Laboratories (Bar Harbor, ME), were maintained in a breeding colony in the Department of Laboratory and Animal Medicine at the David Geffen School of Medicine at UCLA. The mice were maintained on a chow diet (Ralston Purina, St. Louis, MO).
Six hours later, and with continued fasting, blood was removed from the retro-orbital sinus under mild isoflurane anesthesia, and anticoagulated with heparin (2.5 U/ml). Plasma was obtained and fractionated by FPLC. HDL-containing fractions were tested in HAEC cultures for their ability to inhibit LDL-induced monocyte chemotactic activity. All procedures conformed to regulations of the UCLA Animal Research Committee. An HDL inflammatory index was determined using the standard monocyte chemotaxis assay. Indices >1 were interpreted as pro-inflammatory, and indices <1 as anti-inflammatory.

The subject of the next experiment is human RBCs. Put plainly: Inhibition of CDC-mediated hemolysis. The experiment is classed as cell-based. As to conditions: data not shown.
[3] abbreviates: read-out: KD ± SEM, 12(S)-HPETE.
Where [4] appears, read: read-out: KD ± SEM, 13(S)-HPODE.
Where [5] appears, read: read-out: KD ± SEM, 15(S)-HPETE.
Where [6] appears, read: read-out: KD ± SEM, arachidonic acid.
Setting [7] is: read-out: KD ± SEM, linoleic acid.
Where [8] appears, read: read-out: KD ± SEM, palmitic acid.
Where [9] appears, read: peptide 0.01 µg/ml (10 ng/ml) versus 1 µg/ml.
Setting [10] is: peptide 0.1 µg/ml versus 1 µg/ml.

We go through six substances from publication PMC2854715, “Oxpholipin 11D: An Anti-Inflammatory Peptide That Binds Cholesterol and Oxidized Phospholipids” (PLoS ONE, 2010).

One may read the Kd as a measure of binding affinity in units of concentration.

Like-named read-outs stand apart in the source and are kept apart here. Non-standard residues stand in square brackets, D forms with d.

T1 sequence (P02769 25-607): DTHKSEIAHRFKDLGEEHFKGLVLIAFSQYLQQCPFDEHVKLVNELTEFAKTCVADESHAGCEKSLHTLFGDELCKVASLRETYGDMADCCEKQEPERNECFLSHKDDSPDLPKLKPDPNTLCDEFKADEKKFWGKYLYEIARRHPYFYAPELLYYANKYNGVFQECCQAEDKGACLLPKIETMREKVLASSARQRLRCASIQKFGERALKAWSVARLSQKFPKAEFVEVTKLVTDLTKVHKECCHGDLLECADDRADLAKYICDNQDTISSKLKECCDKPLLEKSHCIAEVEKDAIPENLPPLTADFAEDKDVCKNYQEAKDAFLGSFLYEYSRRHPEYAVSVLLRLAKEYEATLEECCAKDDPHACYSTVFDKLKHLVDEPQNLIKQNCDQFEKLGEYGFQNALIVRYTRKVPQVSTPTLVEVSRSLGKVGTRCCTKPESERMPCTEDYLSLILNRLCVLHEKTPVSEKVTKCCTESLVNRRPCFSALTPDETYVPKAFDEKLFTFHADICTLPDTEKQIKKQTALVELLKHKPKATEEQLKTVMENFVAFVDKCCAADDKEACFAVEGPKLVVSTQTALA

Take apoA-I: human apoA-I: the “KD ± SEM, 4β-hydroxycholesterol” value in experiment [1] is given as “BND”. Also, the “KD ± SEM, 20(S)-hydroxycholesterol” value in experiment [1] is on record as “BND”. The “KD ± SEM, 22(S)-hydroxycholesterol” value in experiment [1] was “BND”. Further, the “KD ± SEM, 24(S)-hydroxycholesterol” value in experiment [1] is listed as “BND”. In experiment [1], the “KD ± SEM, 25-hydroxycholesterol” value is reported as “BND”. For the same substance, the “KD ± SEM, cholesterol” value in experiment [1] is “BND”. For the same substance, the Kd in experiment [1] (read-out: KD ± SEM, 5(S)-HPETE) is 1600 ± 0.3 µM; in experiment [1] (read-out: KD ± SEM, 9(S)-HODE), 1300 ± 0.5 µM; in experiment [1] (read-out: KD ± SEM, 12(S)-HETE) it was 850 ± 0.033 µM; in experiment [1] (setting [3]), 820 ± 0.027 µM; in experiment [1] (read-out: KD ± SEM, 13(S)-HODE), 1800 ± 0.3 µM; in experiment [1] (setting [4]), 1200 ± 0.6 µM. The Kd in experiment [1] (read-out: KD ± SEM, 15(S)-HETE) was 1300 ± 0.1 µM; in experiment [1] (setting [5]), 1000 ± 0.2 µM; in experiment [1] (read-out: KD ± SEM, KOdiA-PC) it was 21 µM; in experiment [1] (read-out: KD ± SEM, PEIPC) it was 51 µM; in experiment [1] (read-out: KD ± SEM, POVPC) it was 31 µM; in experiment [1] (setting [6]) it was 0.01 µM. The Kd was 0.0065 µM in experiment [1] (setting [7]), 2 µM in experiment [1] (setting [8]) and 0.021 µM with Bovine albumin.
On to “Ac-DWFKAFYDKVAEKFKEAF-NH2 [D-4F, a prominent apoA-I-mimetic peptide, Ac-…-NH2, reference compound]”, for which, in experiment [2], the “Monocyte chemotactic activity, Inflammatory Index (II)” value is “very similar activity”. Further, the “HDL Inflammatory Index in vivo” value in the experiment on apoE deficient mice (1 mg/kg subcutaneously, fasting female apoE deficient mice, HDL isolated 6 h after dose, normalized to LDL, Figure 3) is listed as “equally effective”. For the same substance, the Kd in experiment [1] (read-out: KD ± SEM, 4β-hydroxycholesterol) is 31 µM; in experiment [1] (read-out: KD ± SEM, 5(S)-HPETE), 0.018 µM; in experiment [1] (read-out: KD ± SEM, 9(S)-HODE) it was 0.015 µM; in experiment [1] (read-out: KD ± SEM, 12(S)-HETE) it was 0.018 µM; in experiment [1] (setting [3]), 0.17 µM; in experiment [1] (read-out: KD ± SEM, 13(S)-HODE) it was 0.011 µM. Besides, the Kd was 0.021 µM in experiment [1] (setting [4]); 0.022 µM in experiment [1] (read-out: KD ± SEM, 15(S)-HETE); 0.051 µM in experiment [1] (setting [5]); 3.9 µM in experiment [1] (read-out: KD ± SEM, 20(S)-hydroxycholesterol); 15 µM in experiment [1] (read-out: KD ± SEM, 22(S)-hydroxycholesterol); 4.3 µM in experiment [1] (read-out: KD ± SEM, 24(S)-hydroxycholesterol). The Kd was 2.4 µM in experiment [1] (read-out: KD ± SEM, 25-hydroxycholesterol); 0.00058 µM in experiment [1] (read-out: KD ± SEM, KOdiA-PC); 6e-05 µM in experiment [1] (read-out: KD ± SEM, PEIPC); 0.0063 µM in experiment [1] (read-out: KD ± SEM, PGPC); 0.0024 µM in experiment [1] (read-out: KD ± SEM, POVPC); 0.012 µM in experiment [1] (setting [6]). Also, the dissociation constant (Kd) was 0.092 µM in experiment [1] (read-out: KD ± SEM, cholesterol); 0.015 µM in experiment [1] (setting [7]); 0.67 µM in experiment [1] (setting [8]).
On to “RE-Ctb-Thr-G-Leu-Ala-Trp-E-Trp-Trp-RT-Val-NH2 [OxP-2]”, for which the “Inhibition of CDC-mediated hemolysis” value in the experiment with human RBCs is recorded as “enhanced the peptide's ability to inhibit CDC-mediated hemolysis”.
Consider “RE-Dpa-Thr-G-Leu-Ala-Trp-E-Trp-Trp-RT-Val-NH2 [OxP-11]”, for which the “Monocyte chemotactic activity, dose response” value was “reduced activity substantially” in experiment [2] (setting [9]) and “relatively small decrease in activity” in experiment [2] (setting [10]). The “Monocyte chemotactic activity, Inflammatory Index (II)” value in experiment [2] is “very similar activity”. In addition, the “HDL Inflammatory Index in vivo” value with apoE deficient mice (lower doses 0.5 and 0.1 mg/kg subcutaneously, apoE deficient mice, Figure 3B) is “considerably less active than L-4F”.
With “Ac-DWFKAFYDKVAEKFKEAF-NH2 (Ac-[dD][dW][dF][dK][dA][dF][dY][dD][dK][dV][dA][dE][dK][dF][dK][dE][dA][dF]-NH2) [D-4F, a prominent apoA-I-mimetic peptide, Ac-…-NH2, reference compound]”, in the experiment with Bovine albumin, the Kd is 3.9 µM.
Turning to “Aib-RE-Ctb-Val-R-Leu-Val-Trp-E-Trp-Trp-RE-Val-NH2 [OxP-13]”, the “Monocyte chemotactic activity, dose response” value in experiment [2] (setting [9]) is “reduced activity substantially”; in experiment [2] (setting [10]) it was “relatively small decrease in activity”. The “Monocyte chemotactic activity, Inflammatory Index (II)” value in experiment [2] is on record as “very similar activity”.
